Laboratory results taken from PMC7156724, “Potent BRD4 inhibitor suppresses cancer cell-macrophage interaction” (Nature Communications, 2020).
“And” between values parts separate entries of the source, which are not always exact repeats. Equal entries are not always repeated.

Experiments:
MDA-MB231 cells [1] = experiment: 3D matrigel assay, MDA-MB231; assay type: cell-based, human; conditions: MDA-MB231, 100 nM
Method: (§1) Fig. 2 NHWD-870 inhibited BRD4 phosphorylation and c-MYC expression, and suppressed cell growth. a Representative western blot analysis of p-BRD4 (s484/488), BRD4, c-MYC, and GAPDH after treatment of MDA-MB231, SUM159, A2780 ES-2, and H526 cells with JQ-1 or NHWD-870 at the indicated concentrations for 24 h. GAPDH served as the loading control. Selected from three independent experiments. b MTT assays of H526, A2780, ES-2, and MDA-MB231 cells treated with JQ-1 or NHWD-870 at the indicated concentrations for 5 days. Data are presented as mean ± SEM from three independent experiments. c, d Clonogenic assays of H526, A2780, ES-2 and MDA-MB231 cells treated with 250 nM JQ-1 or NHWD-870 for 5 days. Shown are representative images (c) and quantification of colonies (d). […] Shown are representative images (e) and quantification of relative colony sizes (f). Scale bar, 50 μm. Data are presented as mean ± SEM from five independent experiments. p values were calculated using two-tailed, unpaired t tests in this figure. **p < 0.01; ***p < 0.001. Source data are provided as a Source Data file.
Single clone spheroids were generated by culturing A2780, ES-2, H526 and MDA-MB231 cells for 16 h as a hanging drop over a humidified plate in a CO2 incubator in their corresponding complete media. […] The relative spheroid sizes were measured with ImageJ version 1.52s using the 15 representative spheroids.

CSF1 protein = experiment: ELISA of CSF1 protein in supernatant of human tumor cells (A2780, SKOV3, A375); assay type: cell-based; conditions: 10^6 A375 cells, 25 nM, 24 h
Method: A2780 tumor cells were pretreated with 100 nM NHWD-870 and then directly co-cultured with TAMs (A2780:TAMs ratio as 4:1) at the density of 1 × 10^5 total cells in a 12-well. Shown are immunofluorescent staining of Ki67 and CD68 (a) and quantification of Ki67+ and CD68− or CD68+ cells (b). Scale bar is 50 μm. […] A2780 cells (pre-treated with or without 100 nM NHWD-870 for 48 h) were seeded into the top chamber (transwell size: 0.4 μm) and TAMs (Mac, 40,000 cells per 24-well) in medium containing 2% matrigel were seeded into the bottom chamber pre-coated with Matrigel. No NHWD-870 was added to the co-culture. The upper chamber without A2780 cells was used as a control. Shown are schematics of transwell co-culture experiment (c), representative pictures of TAM spheroid (d: black/white), and quantification of spheroid volumes (e). Scale bar is 50 μm. […] Data are presented as mean ± SEM from three independent experiments. g CSF1 protein levels in supernatant of 10^6 ID8, B16, A2780, SKOV3, and A375 cells treated with DMSO or 25 nM NHWD-870 for 24 h, as measured by ELISA. […] Scale bar is 20 μm. i Quantification of CSF1 staining in DMSO or 100 nM NHWD-870 treated A2780 cells. […] Shown are representative immunofluorescent staining of CSF1 (green) and CD68 (red) (j) and quantification of CSF1 staining (k). […]

[2] = test system: phosphorylated BRD4 and c-MYC; experiment: Western blot of p-BRD4, BRD4 and c-MYC in solid tumor cell lines; assay type: cell-based, human; conditions: 24 h
Method: as §1, with “file. […]” for “file.”
4. Protein extraction and w estern blot anal ysis. Freshly dissected unfixed tissue was homogenized in lysis buffer. The lysates were centrifuged at 13,000g for 10 minutes at 4°C. Supernatants were collected and determined with a Bradford Protein Assay kit (Bio-Rad, Hercules, CA). The cell lysates were subjected to SDS-PAGE followed by immunoblotting (Immobilon P; Millipore, Milford, MA) with specific antibodies followed by detection using an enhanced chemilumine scence kit (Amersham Life Science, Arlington Heights, IL). […]

MDA-MB231 cells [3] = experiment: MTT cell growth assay, MDA-MB231; assay type: cell-based, human; conditions: 5 days
Method: as §1
37℃, 5% CO2. […]

Cc1nnn(C)c1-c1cnc2c3c4cnn(C)c4ccc3n([C@H](c3ccccc3)C3CCOCC3)c2c1 [NHWD-870]
Clone Size (relative colony size, 3D matrigel assay) (MDA-MB231 cells [1]): 23.2 and 29.8 and 19 and 25.8 and 21.1
CSF1 protein levels in supernatant (ELISA) (CSF1 protein): 26 and 36 and 31
effect on phosphorylated BRD4 and c-MYC (western blot) ([2]; 10 nM): depletion of phosphorylated BRD4 and c-MYC
effect on the stability of BRD4 (western blot) [2]: minimal effects on the stability of BRD4
MTT assay, relative cell number (MDA-MB231 cells [3]; MDA-MB231, 0.1 nM): 0.965 and 0.95 and 0.937
MTT assay, relative cell number (MDA-MB231 cells [3]; MDA-MB231, 1 nM): 0.701 and 0.703 and 0.725
MTT assay, relative cell number (MDA-MB231 cells [3]; MDA-MB231, 10 nM): 0.368 and 0.306 and 0.338
MTT assay, relative cell number (MDA-MB231 cells [3]; MDA-MB231, 100 nM): 0.083 and 0.065 and 0.074
MTT assay, relative cell number (MDA-MB231 cells [3]; MDA-MB231, 500 nM): 0
MTT assay, relative cell number (MDA-MB231 cells [3]; MDA-MB231, 1000 nM): 0
MTT assay, relative cell number (MDA-MB231 cells [3]; MDA-MB231, 5000 nM): 0
MTT assay, relative cell number (MDA-MB231 cells [3]; MDA-MB231, 10000 nM): 0
